The values below come from paper PMC11638965, “Leveraging Dual-Ligase Recruitment to Enhance Protein Degradation via a Heterotrivalent Proteolysis Targeting Chimera” (Journal of the American Chemical Society, 2024).

For one assay, the system named is RKO WT cells. Description: cells. In kind it is cell-based, human. The following applies: Homo sapiens. On the procedure: RKO WT, VHL KO, CRBN KO and CRBN/VHL dKO cells were cultured in Dulbecco’s modified Eagle’s medium supplemented with 10% FCS and 1% penicillin–streptomycin. RKO CRBN KO and VHL KO were generated previously.[45] RKO CRBN/VHL dKO cells were generated by transiently expressing pSpCas9(BB)-2A-GFP (PX458) (Addgene 48138) loaded with a short guide RNA (sgRNA) targeting VHL (Fwd: […], Rev: […]) in RKO CRBN KO cells. Clones were single cell seeded and checked for VHL and CRBN double deletion via Western blot or PCR on genomic DNA (gDNA).
Cells were seeded in 96-well plates at a cell density of 3750 cells per well and treated for 3 days with DMSO or drug at ten √10 serial diluted concentrations. […] Cell viability was assessed using the CellTiter-Glo assay (CellTiter-Glo Luminescent Cell Viability Assay, Promega G7573) according to manufacturer instructions. Luminescence signal was measured on a Multilabel Plate Reader Platform Victor X3 model 2030 (PerkinElmer). Survival curves and EC50 values were determined using GraphPad Prism v.10.0.3 by fitting a nonlinear regression to the log10-transformed drug concentration and the relative viability after normalization of each data point to the mean luminescence of the lowest drug concentration.

In the next assay the target is BRD4 (Homo sapiens, UniProt O60885). Description: Live cell kinetic HiBiT degradation assay, HiBiT-BRD4 HEK293 cells (parental, CRBN KO, VHL KO). The format is cell-based. The following applies: for on-target BRD4 degradation activity (in words): parental, CRBN KO and VHL KO HiBiT-BRD4 HEK293 cells (Figure S5). On the procedure: HEK293 HiBiT-BRD2 (LgBiT stable), HEK293 HiBiT-BRD3 (LgBiT stable), and HEK293 HiBiT-BRD4 (LgBiT stable) were created using CRISPR/Cas9 to insert at HiBiT tag at the N-terminal genomic loci of BRD2, BRD3, or BRD4 in a cell line stably expressing LgBiT protein as described previously.[23]
For kinetic degradation experiments, HEK293 HiBiT-BRD2, 3, or 4 (LgBiT stable) cells and HEK293 HiBiT-BRD4 (LgBiT) CRBN KO and VHL KO cells were plated at 20,000 cells/well in DMEM +10% FBS in white 96-well tissue culture plates and allowed to adhere overnight. The next day, media was removed and 90 μL of prewarmed CO2-independent medium (Gibco) containing Endurazine (Promega) at a 1:100 dilution from stock was added. Plates were incubated at 37 °C for 3 h to allow luminescence to equilibrate. A threefold dilution series of each PROTAC at 10x the desired final concentration was prepared (with the amount of DMSO in each treatment condition kept constant). After luminescence equilibration, a preread luminescence measurement was taken (prior to compound addition) to allow for baseline normalization to account for possible plating differences. Cells were then treated with 10 μL of the prepared PROTAC dilution series (in triplicate or quadruplicate). Treated plates were placed in a GloMax Discover luminometer (Promega) prewarmed to 37 °C and luminescence measurements were obtained every 7 min for 24 h. Kinetic degradation plots were obtained by first normalizing time course luminescence readings in each well to the preread measurement, then to the average value of the DMSO only control at each time point. Data was analyzed using GraphPad Prism (version 8) and excel. Dmax values were identified as the lowest luminescence reading in each well. Rate constant values were calculated using a one phase exponential decay Y = (Y0-Plateau) e(K*^X) + Plateau using Prism (Y0 constrained to 1). Dmax 50 values were calculated by plotting Dmax as a function of concentration, then fitting plots using the following equation: [drawing 1] to determine IC50.
HiBiT-BRD4 (LgBiT stable) HEK293 cells (Promega) were used to generate both VHL KO HiBiT-BRD4 (LgBiT stable) and CRBN KO HiBiT-BRD4 (LgBiT stable) cell lines. For VHL, gRNAs targeting exon 1 ([…]) and exon 2 ([…]) and for CRBN, gRNAs targeting exon 3 ([…]) and exon 6 ([…]) were purchased from IDT DNA (Table 5). For each gRNA, tracrRNA/crRNA duplexes were formed by combining 10 μL of 100 μM Alt-R […] (IDT), 100 μM Alt-R crRNA (IDT) and heating at 95C for 5 min, then were allowed to cool to room temp for 20 min. RNPs were then formed by combining 75 pmol Cas9 (IDT) with 2.4 μL total of prepared tracrRNA/crRNA complex (1.2 μL for each gRNA targeting each exon). Cells were then trypsinized and resuspended at 10,000,000 cells/mL in 1 mL of Mirus Ingenio electroporation solution. Three μL of 100 μM electroporation enhancer (Mirus) was added, along with 3 μL of RNP solution. Cells were electroporated in 2 mm cuvettes using a BioRad system (190 V, 950 μF, infinite resistance) and were then plated in a T75 flask in full growth medium to allow for recovery. After recovery from electroporation, knockout pools were sorted for single cells in 96-well tissue culture treated plates. Clonal populations which expanded from single cells were then screened for loss of function of VHL by treating with MZ1, or loss of function of CRBN by treating with dBET6, using a HiBiT-BRD4 luminescent readout assay. Genomic DNA isolated from candidate clones was then PCR-amplified (Table of primers below), Gibson-assembled into a pF1A plasmid backbone, transformed into E. coli., and then Sanger sequenced to confirm presence of indels in the targeted exons. […] VHL exon 3 carried a 19 bp deletion on one allele, and a 1 bp insertion on the other allele, both occurring after the premature stop codon in exon 1.

[1] abbreviates: 72 h, 500 pM to 10 μM, 3 days (Figure 10, Table S6), read-out: EC50 RKO WT.

“Also recorded” adds a separate entry of the source. Read-outs that look alike come from different tables or passages of the source.

The Dmax is the greatest extent of degradation seen. Regarding `Cc1ncsc1-c1ccc(CNC(=O)[C@@H]2C[C@@H](O)CN2C(=O)[C@@H](NC(=O)COCC(COCCOCCOCCNc2cc3c(cc2F)C(=O)N(C2CCC(=O)NC2=O)C3=O)(COCCOCCOCCOC(=O)C[C@@H]2N=C(c3ccc(Cl)cc3)c3c(sc(C)c3C)-n3c(C)nnc32)COCCOCCOCCOC(=O)C[C@@H]2N=C(c3ccc(Cl)cc3)c3c(sc(C)c3C)-n3c(C)nnc32)C(C)(C)C)cc1` (mixture of isomers) [AB3124 (86)], the EC50 in the assay on RKO WT cells (72 h, 316 pM to 10 μM, 3 days, n = 3 (Figures 5 and 8C, Table S5), read-out: EC50 RKO WT) worked out at 33 nM; at BRD4 (HiBiT-BRD4 CRISPR knock-in HEK293 cells, live cell kinetic degradation, 24 h, read-out: Dmax 50 BRD4), 1.1 nM. The “treatment concentrations with observable hook-effect” value on BRD4 (HiBiT-BRD4 HEK293 cells) is given as not below 333 nM. At BRD4 (HiBiT-BRD4 HEK293 cells (Figure S4)), the “BRD4 degradation rate (in words)” value is given as “remarkably slow compared to the rapid degradation mediated by 27”. Besides, the greatest degradation seen (Dmax) at BRD4 (HiBiT-BRD4 HEK293 cells, read-out: final Dmax less than for 26 and 27) was more than 10%.

Consider `Cc1ncsc1-c1ccc([C@H](C)NC(=O)[C@@H]2C[C@H](O)CN2C(=O)[C@@H](NC(=O)COCC(C)(COCCOCCOCCNc2cc3c(cc2F)C(=O)N(C2CCC(=O)NC2=O)C3=O)COCCOCCOCCOC(=O)C[C@@H]2N=C(c3ccc(Cl)cc3)c3c(sc(C)c3C)-n3c(C)nnc32)C(C)(C)C)cc1` (mixture of isomers) [cis-AB3067 (94), (17S)-11-((2-(2-(2-((2-(2,6-dioxopiperidin-3-yl)-6-fluoro-1,3-dioxoisoindolin-5-yl)amino)ethoxy)ethoxy)ethoxy)methyl)-17-((2S,4S)-4-hydroxy-2-(((S)-1-(4-(4-methylthiazol-5-yl)phenyl)ethyl)carbamoyl)pyrrolidine-1-carbonyl)-11,18,18-trimethyl-15-oxo-3,6,9,13-tetraoxa-16-azanonadecyl 2-((S)-4-(4-chlorophenyl)-2,3,9-trimethyl-6H-thieno[3,2-f][1,2,4]triazolo[4,3-a][1,4]diazepin-6-yl)acetate], for which, in the assay on RKO WT cells (setting [1]), the EC50 was 48 nM. In addition, the “on-target BRD4 degradation activity (in words)” value at BRD4 (listed as 94) was “inactive in CRBN KO cells; also recorded: increase in degradation potency relative to 27 in both parental and VHL KO cells”.

In the case of `Cc1ncsc1-c1ccc([C@H](C)NC(=O)[C@@H]2C[C@H](O)CN2C(=O)[C@@H](NC(=O)COCC(C)(COCCOCCOCCNc2cc3c(cc2F)C(=O)N(C2CCC(=O)N(C)C2=O)C3=O)COCCOCCOCCOC(=O)C[C@@H]2N=C(c3ccc(Cl)cc3)c3c(sc(C)c3C)-n3c(C)nnc32)C(C)(C)C)cc1` (mixture of isomers) [neg-cis-AB3067 (95), (17S)-11-((2-(2-(2-((6-fluoro-2-(1-methyl-2,6-dioxopiperidin-3-yl)-1,3-dioxoisoindolin-5-yl)amino)ethoxy)ethoxy)ethoxy)methyl)-17-((2S,4S)-4-hydroxy-2-(((S)-1-(4-(4-methylthiazol-5-yl)phenyl)ethyl)carbamoyl)pyrrolidine-1-carbonyl)-11,18,18-trimethyl-15-oxo-3,6,9,13-tetraoxa-16-azanonadecyl 2-((S)-4-(4-chlorophenyl)-2,3,9-trimethyl-6H-thieno[3,2-f][1,2,4]triazolo[4,3-a][1,4]diazepin-6-yl)acetate], the EC50 in the assay on RKO WT cells (setting [1]) was 594 nM; in the assay on RKO WT cells (RKO, span over RKO WT, CRBN KO, VHL KO and CRBN/VHL dKO (Figure 10), read-out: EC50s in each WT, KO and dKO RKO cell line), 522 to 657 nM. Besides, the “on-target BRD4 degradation activity (in words)” value at BRD4 is “no degradation of BRD4 in any of the cell lines”.
